Results published in patent US20090131481A1, “Transcription Factor Modulating Compounds and Methods of Use Thereof” (Paratek Pharmaceuticals, Inc., published 2009).
Read-outs that look alike come from different tables or passages of the source.

Tests used:
[1] = biological target: T1, ExsA (Pseudomonas aeruginosa, UniProt P26993); assay: Chemiluminescence-based ExsA-DNA binding assay; parameters: species or system P. aeruginosa; conditions: Table 7, cell-free system; read-out: ExsA EC50
T1 construct: made in house
T1 sequence (P26993 1-278): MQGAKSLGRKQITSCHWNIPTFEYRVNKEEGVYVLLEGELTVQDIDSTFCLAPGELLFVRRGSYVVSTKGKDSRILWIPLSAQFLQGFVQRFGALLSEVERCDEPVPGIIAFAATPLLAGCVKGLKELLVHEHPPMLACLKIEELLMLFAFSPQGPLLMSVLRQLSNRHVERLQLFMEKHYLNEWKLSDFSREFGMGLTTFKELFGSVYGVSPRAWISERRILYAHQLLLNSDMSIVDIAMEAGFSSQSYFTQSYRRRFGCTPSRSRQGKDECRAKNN

[2] = biological target: LcrF (VirF) (Yersinia pestis, UniProt P28808); assay: biochemical; format: binding, Y. pseudotuberculosis
LcrF (VirF), sequence (P28808 whole entry, looked up): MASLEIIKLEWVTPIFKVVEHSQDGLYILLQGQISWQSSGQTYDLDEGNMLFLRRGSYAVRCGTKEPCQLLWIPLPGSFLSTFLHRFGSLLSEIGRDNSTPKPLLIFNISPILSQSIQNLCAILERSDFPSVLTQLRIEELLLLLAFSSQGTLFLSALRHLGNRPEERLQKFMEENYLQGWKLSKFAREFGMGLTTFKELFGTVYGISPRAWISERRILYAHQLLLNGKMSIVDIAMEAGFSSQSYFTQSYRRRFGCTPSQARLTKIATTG

[3] = system: Y. pseudotuberculosis; assay: microbe, parasite or virus in culture; conditions: Yersinia pseudotuberculosis, J774, read-out: % Cytotoxicity
[4] = EC50 for inhibition of LcrF(VirF)-DNA binding
[5] = read-out: EC50 for inhibition of LcrF(VirF)-DNA binding

Structure (SMILES) | EC50 [1] [µM] | EC50 [2, 4] [µM] | activity at 50 µg/mL [3] [%] | EC50 [2, 5] [µM]
O=C(Nc1ccc(-c2nc3ccc([N+](=O)[O-])cc3n2O)cc1)c1ccc(-n2cccn2)cc1 [AB] | < 10 | – | – | –
CC(=O)Nc1ccc(C(=O)Nc2ccc(-c3nc4ccc([N+](=O)[O-])cc4n3O)cc2)cc1 [AC] | < 10 | 10 to 25 | < 75 | –
O=C(Nc1ccc(-c2nc3ccc([N+](=O)[O-])cc3n2O)cc1)c1ccc(N2CCOCC2)cc1 [AD] | 10 to 25 | – | – | –
O=C(Nc1ccc(-c2nc3ccc([N+](=O)[O-])cc3n2O)cc1)c1ccc(O)cc1 [AE] | 10 to 25 | – | – | –
NS(=O)(=O)c1ccc(C(=O)Nc2ccc(-c3nc4ccc([N+](=O)[O-])cc4n3O)cc2)cc1 [AF] | 10 to 25 | – | – | –
CS(=O)(=O)c1ccc(C(=O)Nc2ccc(-c3nc4ccc([N+](=O)[O-])cc4n3O)cc2)cc1 [AG] | > 25 | – | – | –
O=C(O)c1ccc(C(=O)Nc2ccc(-c3nc4ccc([N+](=O)[O-])cc4n3O)cc2)cc1 [AI] | > 25 | – | – | –
O=C(/C=C/c1ccc(O)cc1)Nc1ccc(-c2nc3ccc([N+](=O)[O-])cc3n2O)cc1 [AN] | 10 to 25 | – | – | –
CC(C)c1ccc(/C=C/C(=O)Nc2ccc(-c3nc4ccc([N+](=O)[O-])cc4n3O)cc2)cc1 [CS] | > 25 | > 25 | < 75 | –
C/C(=C\c1ccccc1)C(=O)Nc1ccc(-c2nc3ccc([N+](=O)[O-])cc3n2O)cc1 [CT] | > 25 | > 25 | < 75 | –
O=C(Nc1ccc2nc(-c3ccc([N+](=O)[O-])cc3)n(O)c2c1)c1ccc(F)cc1 [CW] | – | – | < 75 | > 25
NC(=NO)c1ccc2nc(-c3ccc(NC(=O)c4ccc(F)cc4)cc3)n(O)c2c1 [CX] | > 25 | > 25 | < 75 | –
CC(=NO)c1ccc2nc(-c3ccc(NC(=O)c4ccc(N(C)C)cc4)cc3)n(O)c2c1 [DF] | > 25 | > 25 | < 75 | –
O=C(O)COn1c(-c2ccc(NC(=O)c3ccc(F)cc3)cc2)nc2ccc([N+](=O)[O-])cc21 [DG, {2-[4-(4-Fluoro-benzoylamino)-phenyl]-6-nitro-benzoimidazol-1-yloxy}-acetic acid] | – | > 25 | < 75 | –
CCc1cc(-c2nc3ccc([N+](=O)[O-])cc3n2O)ccc1NC(=O)c1ccc(F)cc1 [DK] | > 25 | 10 to 25 | < 75 | –
CC(=O)c1ccc(C(=O)Nc2ccc(-c3nc4ccc([N+](=O)[O-])cc4n3O)cc2C)cc1 [ER] | – | – | < 75 | > 25
O=C(Cc1ccc(F)cc1)Nc1ccc(-c2nc3ccc([N+](=O)[O-])cc3n2O)cc1 [G] | > 25 | > 25 | – | –
O=C(CCc1ccc(F)cc1)Nc1ccc(-c2nc3ccc([N+](=O)[O-])cc3n2O)cc1 [L] | > 25 | > 25 | – | –
O=C(Nc1ccc(-c2nc3ccc([N+](=O)[O-])cc3n2O)cc1)c1cccc(F)c1 [N] | – | > 25 | – | –
Cc1cccc(C(=O)Nc2ccc(-c3nc4ccc([N+](=O)[O-])cc4n3O)cc2)c1 [O] | – | > 25 | – | –
Cc1ccccc1C(=O)Nc1ccc(-c2nc3ccc([N+](=O)[O-])cc3n2O)cc1 [P] | – | > 25 | – | –
O=C(Nc1ccc(-c2nc3ccc([N+](=O)[O-])cc3n2O)cc1)c1ccccc1F [Q] | – | > 25 | – | –
O=[N+]([O-])c1ccc2nc(-c3ccc(C#Cc4ccc(F)cc4)cc3)n(O)c2c1 [R] | > 25 | > 25 | – | –
COc1ccccc1/C=C/C(=O)Nc1ccc(-c2nc3ccc([N+](=O)[O-])cc3n2O)cc1 [U] | < 10 | 10 to 25 | – | –
O=C(/C=C/c1ccc(C(F)(F)F)cc1)Nc1ccc(-c2nc3ccc([N+](=O)[O-])cc3n2O)cc1 [Y] | 10 to 25 | < 10 | – | –
O=C(NCc1ccc(-c2nc3ccc([N+](=O)[O-])cc3n2O)cc1)c1ccc(F)cc1 [Z] | > 25 | > 25 | – | –
